Experimental data reported in the Bradley open melting point set (2014).
Several values for one entry are separate records, joined by “and”; a condition that tells them apart may be missing. Identical values can stand only once.

In order of falling melting point:
1. C[C@H](N)C(=O)N[C@@H](C)C(=O)O [L-Alanyl-L-alanine]  280 °C
2. Cc1ncc(COP(=O)(O)O)c(C=O)c1O [Pyridoxal Phosphate]  205 °C
3. Cc1ccc(C(=O)O)cc1Br [3-bromo-4-methylbenzoic_acid]  200 °C
4. O=C(O)C(S)C(S)C(=O)O (stereo unspecified) [2,3-Disulfanylsuccinic acid]  197 °C
5. Nc1ccc(S(=O)(=O)Nc2ccccn2)cc1 [sulfapyridine]  192 °C
6. COc1ccc(Cl)cc1C(=O)NCCc1ccc(S(=O)(=O)NC(=O)NC2CCCCC2)cc1 [glybenzcyclamide]  173 °C
7. Oc1ccc(-c2ccccc2)cc1 [4-phenylphenol]  166 °C
8. Cc1c(C)c(C)c(Br)c(C)c1C [1-bromo-2,3,4,5,6-pentamethylbenzene]  165 °C
9. COC(=O)/C=C(/C(=O)OC)N(Nc1ccccc1N=Nc1ccccc1)c1ccccc1  154 °C
10. CCCCOc1ccc(CC(=O)NO)cc1 [bufexamac]  153 °C
11. C=Cc1ccccc1C(N)=O [o-vinylbenzamide]  152 °C
12. O=C(O)c1ccccc1Br [o-bromobenzoic_acid]  149 °C
13. Cc1cccc2c1-c1nc3ccccc3nc1-2 [1-methylbenzo[3,4]cyclobuta[1,2-b]quinoxaline]  135 °C
14. O=C(OC[C@H]1O[C@](O)(COC(=O)c2cccnc2)[C@@H](OC(=O)c2cccnc2)[C@@H]1OC(=O)c1cccnc1)c1cccnc1 [nicofuranose]  135 °C
15. CCCC(=O)Nc1ccc(OCC(O)CNC(C)C)c(C(C)=O)c1 (stereo unspecified) [acebutolol]  119 °C
16. Nc1ccc(Cl)cc1[N+](=O)[O-] [4-chloro-2-nitroaniline]  116 °C
17. CC(C)S[C@@H]1O[C@H](CO)[C@H](O)[C@H](O)[C@H]1O [isopropyl-beta-d-thiogalactoside]  112 °C
18. COc1ccc2cc(C(C)O)ccc2c1 (stereo unspecified) [1-(6-methoxy-2-naphthyl)ethanol]  112 °C
19. CCOC(=O)Nc1cccc([N+](=O)[O-])c1[N+](=O)[O-] [ethyl (2,3-dinitrophenyl)carbamate]  103 °C
20. O=C(O)Cc1ccccc1Cl [2-chlorophenylacetic acid]  96 °C
21. CNC(=O)Oc1ccccc1OC(C)C [propoxur]  91.5 °C
22. CC(C)(C)[Si](C)(C)Oc1cccc(B(O)O)c1 [3-(tert-butyldimethylsiloxy)benzeneboronic acid]  89 °C
23. Cc1cc(C)n(CN(CCO)Cn2nc(C)cc2C)n1 [2-{bis[(3,5-dimethyl-1H-pyrazol-1-yl)methyl]amino}ethanol]  83 °C
24. COC(=O)c1cccc([N+](=O)[O-])c1 [methyl_3-nitrobenzoate]  80 °C
25. CCCCOc1ccc(-c2nnc3sc(/C=C/c4ccccc4)nn23)cc1  80 °C
26. CNC(=O)O/N=C(\C)SC [Methyl (1E)-N-[(methylcarbamoyl)oxy]ethanimidothioate]  79 °C
27. N#Cc1cccc(C=O)c1 [3-cyanobenzaldehyde]  77 °C
28. S=C=Nc1ccc(I)cc1 [4-iodophenyl isothiocyanate]  76 °C
29. Cn1c(=O)ccc2ccccc21 [1-methyl-2-quinolinone]  75 °C
30. O=C(O)CCl [chloroacetic acid]  62 °C
31. Fc1c(F)c(F)c(P(c2ccccc2)c2c(F)c(F)c(F)c(F)c2F)c(F)c1F [bis(pentafluorophenyl)phenylphosphine]  62 °C
32. N#Cc1cccc(-c2ccccc2)c1 [m-cyanobiphenyl]  49 °C
33. CC(=O)c1ccc(Cl)s1 [2-acetyl-5-chlorothiophene]  46 °C
34. CC(C)[C@@H]1CC[C@@H](C)C[C@H]1O [Menthol]  43 °C
35. CCCCCCCCCCCCCCCCCCCC [Icosane]  36.7 °C
36. C[C@H](O)[C@@H](C)O [(2R,3S)-Butane-2,3-diol]  33 °C
37. COC(=O)/C(=C\c1ccccc1)Cc1ccccc1 [methyl (2Z)-2-benzyl-3-phenylprop-2-enoate]  28 °C
38. Nc1cccc(Br)c1 [m-bromoaniline]  17 °C
39. C=CC(=O)O [acrylic acid]  13 °C
40. Nc1cc(C(F)(F)F)ccc1Cl [2-chloro-5-(trifluoromethyl)aniline]  9 °C
41. Oc1ccccc1Cl [2-chlorophenol]  8 °C
42. C=CCCCCCCCCCCCCC [1-pentadecene]  -4 °C
43. Cc1ccc(C)c(C)c1 [1,2,4-Trimethylbenzene]  -43.8 °C
44. Cc1cccc(C)c1 [m-xylene]  -47 °C
45. COc1ccc(C)cc1 [4-methylanisole]  -50 °C
46. CCCCCCCC [N-Octane]  -56.8 °C
47. COCCOCCOC [diethylene glycol dimethyl ether]  -64 °C
48. CCI [Iodoethane]  -108 °C

In the case of `NC(=O)c1cnccn1` [pyrazinamide], the melting point is reported as 190 °C and 189 °C.
For `CCCOC(=O)c1ccc(O)cc1` [propyl paraben], the melting point was 97 °C and 96.5 °C (2×) and 96 °C.
In the case of `c1cc2ccc3ccc4ccc5ccc6ccc1c1c2c3c4c5c61` [coronene], the melting point is reported as 438 °C and 440 °C.
